Reference: paper PMC11110157, “Biosynthesis of the bacterial antibiotic 3,7-dihydroxytropolone through enzymatic salvaging of catabolic shunt products” (Chemical Science, 2024)

What was measured:
TrlD [1] = target: T1, TrlD (Streptomyces cyaneofuscatus, UniProt A0A2S1JZG9); test: co-purification with bound flavin; assay type: binding; details: FAD preferred over FMN as flavin substrate
T1 construct: heterologously produced and purified; fraction co-purified with FAD
T1 sequence (A0A2S1JZG9 1-185): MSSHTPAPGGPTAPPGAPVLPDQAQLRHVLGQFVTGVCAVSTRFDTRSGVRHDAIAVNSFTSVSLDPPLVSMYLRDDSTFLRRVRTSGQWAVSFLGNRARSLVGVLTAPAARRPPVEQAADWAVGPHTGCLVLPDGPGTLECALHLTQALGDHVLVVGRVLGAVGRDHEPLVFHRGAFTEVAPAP

TrlE [2] = target: T2, TrlE (Streptomyces cyaneofuscatus, UniProt A0A2S1JZI9); test: X-ray crystallography ([…] A); assay type: binding; details: FAD non-covalently bound, IN conformation
T2 construct: heterologously produced and purified; crystal structure model residues 1-400
T2 sequence (A0A2S1JZI9 1-400): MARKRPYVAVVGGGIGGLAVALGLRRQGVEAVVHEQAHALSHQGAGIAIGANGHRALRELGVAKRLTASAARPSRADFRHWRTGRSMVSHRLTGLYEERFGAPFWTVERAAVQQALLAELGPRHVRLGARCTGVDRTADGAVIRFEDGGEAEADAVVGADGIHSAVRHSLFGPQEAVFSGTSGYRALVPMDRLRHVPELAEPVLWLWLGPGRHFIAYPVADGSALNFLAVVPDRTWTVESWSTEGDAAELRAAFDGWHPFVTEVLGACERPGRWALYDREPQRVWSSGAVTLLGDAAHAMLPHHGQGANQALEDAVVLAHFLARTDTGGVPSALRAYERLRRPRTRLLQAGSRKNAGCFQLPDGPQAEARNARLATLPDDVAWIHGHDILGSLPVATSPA

TrlD [3] = target: T1, TrlD; test: flavin reductase assay, cofactor specificity; assay type: biochemical; details: preferred over NADPH
TrlE [4] = target: T3, TrlE (Streptomyces cyaneofuscatus, UniProt A0A2S1JZI9, Y217F); test: substrate consumption and product formation assay; assay type: biochemical; details: strongly reduced activity
T3 construct: heterologously produced and purified; crystal structure model residues 1-400
T3 sequence (A0A2S1JZI9 entry or part of it Y217F): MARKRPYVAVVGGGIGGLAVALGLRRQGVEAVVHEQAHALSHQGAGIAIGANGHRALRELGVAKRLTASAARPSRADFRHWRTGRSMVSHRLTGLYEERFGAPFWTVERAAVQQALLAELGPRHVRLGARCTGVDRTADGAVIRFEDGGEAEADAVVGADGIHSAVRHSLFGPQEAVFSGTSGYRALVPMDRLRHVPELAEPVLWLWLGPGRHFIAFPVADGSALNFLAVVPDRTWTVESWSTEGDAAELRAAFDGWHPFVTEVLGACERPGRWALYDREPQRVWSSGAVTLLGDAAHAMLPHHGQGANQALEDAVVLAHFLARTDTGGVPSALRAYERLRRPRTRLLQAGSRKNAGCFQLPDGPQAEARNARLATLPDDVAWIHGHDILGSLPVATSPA

TrlE [5] = target: T4, TrlE (Streptomyces cyaneofuscatus, UniProt A0A2S1JZI9, H213Q); test: substrate consumption and product formation assay; assay type: biochemical; details: strongly reduced activity, minor product formation
T4 construct: heterologously produced and purified; crystal structure model residues 1-400
T4 sequence (A0A2S1JZI9 entry or part of it H213Q): as the sequence (A0A2S1JZI9 entry or part of it Y217F) above, with H213Q, F217Y counted along it

TrlE [6] = target: T5, TrlE (Streptomyces cyaneofuscatus, UniProt A0A2S1JZI9, H213E); test: substrate consumption and product formation assay; assay type: biochemical; details: strongly reduced activity, minor product formation
T5 construct: heterologously produced and purified; crystal structure model residues 1-400
T5 sequence (A0A2S1JZI9 entry or part of it H213E): as the sequence (A0A2S1JZI9 entry or part of it Y217F) above, with H213E, F217Y counted along it

TrlE [7] = target: T2, TrlE; test: differential scanning fluorimetry; assay type: binding; details: substrate analogue; thermal shift

In the case of `Cc1cc2nc3c(=O)[nH]c(=O)nc-3n(C[C@H](O)[C@H](O)[C@H](O)COP(=O)(O)OP(=O)(O)OC[C@H]3O[C@@H](n4cnc5c(N)ncnc54)[C@H](O)[C@@H]3O)c2cc1C` [FAD], the “co-purification with bound flavin” value (TrlD [1]) is reported as “a fraction of TrlD was co-purified with bound FAD” and the “X-ray crystallography (2.5 A)” value (TrlE [2]) is reported as “The non-covalently bound FAD observed in this structure is present in the “IN” conformation”.

With `NC(=O)C1=CN([C@@H]2O[C@H](COP(=O)(O)OP(=O)(O)OC[C@H]3O[C@@H](n4cnc5c(N)ncnc54)[C@H](O)[C@@H]3O)[C@@H](O)[C@H]2O)C=CC1` [NADH] the “flavin reductase assay, cofactor specificity” value (TrlD [3]) was “TrlD preferred FAD and NADH over FMN and NADPH, respectively”.

For `O=C(O)C1=C(O)CC=CC=C1` [compound 7, dihydrotropone-2-carboxylate], the “substrate consumption and product formation assay” value (TrlE [4]) was “the other variants showed strongly reduced catalytic activity, with slowed substrate consumption and product formation”, the “substrate consumption and product formation assay” value (TrlE [5]) was “For both H213E and H213Q variants, minor product formation was still observed” and the “substrate consumption and product formation assay” value (TrlE [6]) was “For both H213E and H213Q variants, minor product formation was still observed”.

`O=C(O)c1ccccc1O` [salicylate] was tested, and the differential scanning fluorimetry (TrlE [7]) was “binding of these compounds to TrlE was confirmed by differential scanning fluorimetry (DSF)”.

For `O=C(O)c1cccccc1=O` [tropone-2-carboxylate], the differential scanning fluorimetry (TrlE [7]) was “binding of these compounds to TrlE was confirmed by differential scanning fluorimetry (DSF)”.
